The record followed here is PubChem BioAssay (NCI).

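Following 48 hours of exposure in 96-well plates, responses at five concentrations were used to interpolate endpoints linearly. The concentration for 50% growth inhibition is given as GI50. At the TGI there is no net growth.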 Where only a bound is given, the exact number is not on record here.

Some test systems named below: SW-620 colon; HOP-62 NSCLC; HCC-2998 colon; OVCAR-5 ovarian; HCT-15 colon; SN12C renal; UO-31 renal; NCI-H226 lung; HT29 colon; NCI-H460 lung.
Holding throughout (assay): NCI anticancer screen, dose series, 48 h

On to `O=c1ncc(F)cn1C1OC(CO)C(O)C1O` (stereo not given), for which the TGI with SW-620 colon was more than 100 µM; in the test with HOP-62 NSCLC it was more than 100 µM; in the test with HCC-2998 colon, more than 51.4 µM; in the test on OVCAR-5 ovarian, more than 100 µM; in the test on HCT-15 colon, more than 100 µM; with SN12C renal it was more than 60.4 µM. Besides, the TGI in the test on UO-31 renal was more than 100 µM; in the test on NCI-H226 lung, more than 100 µM; in the test on HT29 colon, more than 73.3 µM; in the test with NCI-H460 lung, more than 73 µM.
Take `CCOC(=O)c1cc2c(cc1Cl)SC(N(c1ccc(OC)cc1)S(=O)(=O)c1ccc(Cl)cc1)=NS2(=O)=O`: the GI50 in the test with SW-620 colon is 27.6 µM; in the test with HOP-62 NSCLC, more than 100 µM; with HCC-2998 colon it was more than 100 µM; in the test with OVCAR-5 ovarian, more than 100 µM; with HCT-15 colon it was 32.3 µM; with SN12C renal, 31.8 µM. The GI50 is 32 µM in the test with UO-31 renal, 94.1 µM with NCI-H226 lung, 29.4 µM with HT29 colon and 37.3 µM in the test on NCI-H460 lung. Besides, the TGI is 72.8 µM in the test on SW-620 colon; more than 100 µM in the test with HOP-62 NSCLC; more than 100 µM in the test with HCC-2998 colon; more than 100 µM in the test with OVCAR-5 ovarian; more than 100 µM in the test on HCT-15 colon; more than 100 µM with SN12C renal. Moreover, the TGI with UO-31 renal, in the test with NCI-H226 lung, in the test with HT29 colon and in the test on NCI-H460 lung was more than 100 µM throughout.
Turning to `Clc1ccc(-c2c3c(nn2-c2ccccn2)CCc2ccccc2-3)cc1Cl`, the GI50 was more than 100 µM in the test on SW-620 colon; 50.2 µM with HOP-62 NSCLC; more than 100 µM in the test with HCC-2998 colon; more than 100 µM in the test on OVCAR-5 ovarian; more than 100 µM in the test on HCT-15 colon; more than 100 µM with SN12C renal. Further, the GI50 is more than 100 µM with UO-31 renal, more than 100 µM with NCI-H226 lung, 46.3 µM with HT29 colon and more than 100 µM with NCI-H460 lung. Further, the TGI in the test with SW-620 colon, in the test on HOP-62 NSCLC, in the test with HCC-2998 colon, with OVCAR-5 ovarian, with HCT-15 colon and in the test on SN12C renal was more than 100 µM throughout. The TGI in the test on UO-31 renal, in the test with NCI-H226 lung, in the test on HT29 colon and in the test with NCI-H460 lung was more than 100 µM throughout.
In the case of `CC(=O)OC[C@@H](COC(=O)/C=C/c1ccc(O)cc1)OC1OC(CO)C(O)C(O)C1O` (stereo not given in full), the TGI in the test with SW-620 colon, in the test on HOP-62 NSCLC, with HCC-2998 colon, with OVCAR-5 ovarian, in the test with HCT-15 colon and in the test on SN12C renal was more than 100 µM each time. Besides, the TGI with UO-31 renal, with NCI-H226 lung, in the test on HT29 colon and with NCI-H460 lung was more than 100 µM each time.
Regarding `CCC[CH2][Sn]1([CH2]CCC)[O]CC(CN(C)Cc2ccccc2)[O]1` (stereo not given), the GI50 in the test with SW-620 colon is 2.77 µM; with HOP-62 NSCLC, 14.1 µM; in the test with HCC-2998 colon, 11 µM; with OVCAR-5 ovarian, 12.7 µM; in the test with HCT-15 colon it was 8.29 µM; in the test with SN12C renal, 10.1 µM. Moreover, the GI50 in the test with UO-31 renal is 12.2 µM; with NCI-H226 lung it was 17.2 µM; in the test with HT29 colon, 15.2 µM; with NCI-H460 lung, 16.4 µM. The TGI in the test on SW-620 colon came out at 11.1 µM; in the test with HOP-62 NSCLC it was 27.7 µM; with HCC-2998 colon, 23.3 µM; with OVCAR-5 ovarian, 25.3 µM; in the test with HCT-15 colon, 20.3 µM; in the test on SN12C renal, 21.9 µM. For the same compound, the TGI was 24.7 µM in the test with UO-31 renal, 35.8 µM in the test with NCI-H226 lung, 34.3 µM in the test on HT29 colon and 30.3 µM in the test with NCI-H460 lung.
With `CN(Cc1ccccc1)c1ccc(CO)c(Cl)c1`, the GI50 in the test on SW-620 colon is 7.98 µM; with HOP-62 NSCLC it was 6.41 µM; in the test on HCC-2998 colon, 13 µM; in the test with OVCAR-5 ovarian, 0.595 µM; in the test with HCT-15 colon it was 25.3 µM; in the test with SN12C renal, 31.8 µM. Moreover, the GI50 was 15 µM in the test with UO-31 renal, 0.142 µM with NCI-H226 lung, 9.63 µM in the test with HT29 colon and 1.72 µM with NCI-H460 lung. For the same compound, the TGI in the test on SW-620 colon was more than 100 µM; in the test with HOP-62 NSCLC, more than 58.6 µM; with HCC-2998 colon, 51.9 µM; in the test on OVCAR-5 ovarian, 3.08 µM; in the test on HCT-15 colon it was more than 100 µM; in the test on SN12C renal, more than 100 µM. Further, the TGI is more than 100 µM in the test with UO-31 renal, 0.324 µM in the test on NCI-H226 lung, more than 81.4 µM in the test with HT29 colon and 14.6 µM in the test with NCI-H460 lung.
On to `CC(=O)C1=C(O)C=C2Oc3c(C(=O)/C=C/c4c(Cl)cccc4Cl)c(O)c(C)c(O)c3[C@]2(C)C1=O`, for which the GI50 in the test with SW-620 colon is 0.64 µM; in the test with HOP-62 NSCLC it was 1.58 µM; in the test with HCC-2998 colon, 2.57 µM; in the test with OVCAR-5 ovarian, 3.09 µM; in the test with HCT-15 colon, 0.668 µM; in the test on SN12C renal, 0.527 µM. Also, the GI50 was 1.92 µM in the test on UO-31 renal, 2.47 µM in the test on NCI-H226 lung, 1.73 µM in the test on HT29 colon and 1.17 µM in the test on NCI-H460 lung. Besides, the TGI is 3.13 µM in the test with SW-620 colon; 5.08 µM with HOP-62 NSCLC; 5.26 µM in the test with HCC-2998 colon; 8.13 µM with OVCAR-5 ovarian; 2.94 µM in the test with HCT-15 colon; 1.76 µM in the test on SN12C renal. Further, the TGI in the test on UO-31 renal was found to be 7.59 µM; with NCI-H226 lung, 5.14 µM; with HT29 colon, 6.23 µM; with NCI-H460 lung, 4.46 µM.
On to `O=C(c1ccccc1)C1OC12C(=O)Nc1c(Cl)cc(Cl)cc12` (stereo not given), for which the TGI was 35.4 µM in the test on SW-620 colon; more than 100 µM with HOP-62 NSCLC; more than 100 µM in the test on HCC-2998 colon; more than 100 µM in the test with OVCAR-5 ovarian; more than 70 µM in the test on HCT-15 colon; more than 91.2 µM in the test with SN12C renal. The TGI with UO-31 renal, in the test on NCI-H226 lung, in the test on HT29 colon and in the test with NCI-H460 lung was more than 100 µM each time.
Consider `Nc1nc2c(ncn2C2C=CC(CO)C2)c(=O)[nH]1` (stereo not given), for which the TGI in the test on SW-620 colon, with HOP-62 NSCLC, in the test on HCC-2998 colon, with OVCAR-5 ovarian, in the test on HCT-15 colon and in the test on SN12C renal was more than 100 µM each time. Moreover, the TGI in the test with UO-31 renal, in the test with NCI-H226 lung, with HT29 colon and in the test on NCI-H460 lung was more than 100 µM throughout.
